Counter-ions that a name gives are not always drawn.
How the values were obtained:
[1] = Boiling point of fragrance raw materials
[2] = LogP of fragrance raw materials
[3] = Example 2, fragrances for thermo boost performance, head range 230.1 a 300.0
[4] = Example 1, fragrances for long lasting performance, head range 1.00 a 230.0
[5] = Example 1, fragrances for long lasting performance, head range 1.00 a 3.00
[6] = Example 2, fragrances for thermo boost performance, head range 0.00 a 3.00

CCOC(=O)COc1ccccc1 [ETHYL PHENOXY ACETATE]
Boiling Point [1, 3]: 252.8 °C

CC1(C)[C@@H]2CC[C@@]1(C)[C@H](O)C2 (racemic) [ISOBORNEOL]
Boiling Point [1, 4]: 210 °C

CC/C=C\CCOC(C)OCC (centres unmarked) [LEAF ACETAL]
Boiling Point [1, 4]: 201.4 °C | logP [2, 5]: 2.95

Cc1ccc(O)cc1 [CRESOL PARA]
Boiling Point [1, 4]: 190.8 °C | logP [2, 5]: 2.06

CC(=O)OCc1ccccc1 [BENZYL ACETATE]
Boiling Point [1, 4]: 215.6 °C

CC/C=C\CCOC(C)=O [HEXENYL ACETATE CIS-3]
Boiling Point [1, 4]: 176.6 °C

O=c1ccc2ccccc2o1 [COUMARIN]
Boiling Point [1, 3]: 290.7 °C

COc1cc(C=O)ccc1O [VANILLIN]
Boiling Point [1, 3]: 274.3 °C | logP [2]: 1.05

COc1nccnc1C(C)C [ISOPROPYL METHOXYPYRAZINE-2,3]
Boiling Point [1, 4]: 217.8 °C

COC(=O)c1ccccc1N [METHYL ANTHRANILATE (=130085), METHYL ANTHRANILATE]
Boiling Point [1, 3]: 263.6 °C | logP (physchem): 2.26

CC(=O)OC(C)c1ccccc1 (centres unmarked) [STYRALYL ACETATE]
Boiling Point [1, 4]: 223.1 °C

CCCCCCOC(C)=O [HEXYL ACETATE]
Boiling Point [1, 4]: 170.1 °C

CCCCC1CCC(=O)O1 (centres unmarked) [OCTALACTONE GAMMA]
Boiling Point [1, 3]: 248.4 °C

CCCCCC(=O)OCC [ETHYL CAPROATE]
Boiling Point [1, 4]: 170.1 °C

O=Cc1ccc2c(c1)OCO2 [HELIOTROPIN]
Boiling Point [1, 3]: 257 °C | logP [2, 6]: 1.77

CCCCCC#CC(=O)OC [METHYL HEPTIN CARBONATE]
Boiling Point [1, 4]: 205.3 °C | logP [2, 5]: 2.6

C=CCOC(=O)COC1CCCCC1 [CYCLOGALBANAT®]
Boiling Point [1, 3]: 254.9 °C

CCOC(=O)CC [ETHYL PROPIONATE]
Boiling Point [1, 4]: 102.3 °C | logP [2]: 1.36

COc1cc(C)ccc1O [METHYL GUAIACOL-4]
Boiling Point [1, 3]: 230.4 °C

c1ccc2[nH]ccc2c1 [INDOLE FF, INDOLE]
Boiling Point [1, 3]: 250 °C | logP (physchem): 2.05

OCCc1ccccc1 [PHENYLETHYL ALCOHOL BA FREE, PHENYLETHYL ALCOHOL]
Boiling Point [1, 4]: 224.9 °C | logP [2]: 1.57

CCCCOC(C)=O [BUTYL ACETATE]
Boiling Point [1, 4]: 125.8 °C | logP [2]: 1.85

CCOC(=O)c1ccccc1 [ETHYL BENZOATE]
Boiling Point [1, 4]: 215.6 °C | logP (physchem): 2.32

COc1ccc(C=O)cc1 [ANISIC ALDEHYDE PURE, ANISIC ALDEHYDE]
Boiling Point [1, 4]: 221.6 °C

CCCCCC(=O)CC [OCTANONE-3]
Boiling Point [1, 4]: 163.6 °C

CC(=O)CCC=C(C)C [METIL-6-HEPTEN-5-ONA-2 SUPRA, METIL-6-HEPTEN-5-ONA-2]
Boiling Point [1, 4]: 164.4 °C

CCCC1CCC(=O)O1 (centres unmarked) [HEPTALACTONE GAMMA]
Boiling Point [1, 3]: 230.3 °C | logP [2, 6]: 1.09

COC(OC)C(C)c1ccccc1 (centres unmarked) [HYDRATROPIC ALDEHYDE DIMETH.ACET]
Boiling Point [1, 4]: 227.2 °C

CCCCCCC1CCC(=O)O1 (centres unmarked) [DECALACTONE GAMMA]
Boiling Point [1, 3]: 281.7 °C | logP [2, 6]: 2.57

CC/C=C/CC/C=C/CO [NONADIENOL-2,6]
Boiling Point [1, 3]: 231.6 °C | logP [2, 6]: 2.87

CC1=CC(C)C(C=O)CC1 (centres unmarked) [VERTOCITRAL]
Boiling Point [1, 4]: 200.5 °C

CCCCC1CCCC(=O)O1 (centres unmarked) [NONALACTONE DELTA]
Boiling Point [1, 3]: 267 °C | logP [2, 6]: 2.08

COC(=O)c1ccccc1O [METHYL SALICYLATE PF, METHYL SALICYLATE]
Boiling Point [1, 3]: 252.2 °C | logP [2]: 2.6

C=CCOC(=O)COCCC(C)C [ALLYL AMYL GLYCOLATE]
Boiling Point [1, 4]: 217.7 °C

O=COCCc1ccccc1 [PHENYLETHYL FORMATE]
Boiling Point [1, 4]: 217.3 °C | logP [2]: 2.02

Cc1csc(C(C)C)n1 [ISOPROPYL METHYL THIAZOLE-2,4]
Boiling Point [1, 4]: 198 °C

COC(=O)Cc1ccccc1 [METHYL PHENYLACETATE]
Boiling Point [1, 4]: 215.6 °C | logP (physchem): 2.08

CC(=O)C1CCCC(C)(C)C1 (centres unmarked) [HERBAC]
Boiling Point [1, 4]: 197.4 °C

CCCCCCC(C)=O [OCTANONE-2]
Boiling Point [1, 4]: 163.6 °C

COC(Cc1ccccc1)OC
Boiling Point [1, 4]: 219.8 °C | logP [2]: 1.93

MENTHONE L/ISOMENTHONE D
Boiling Point [1, 4]: 213 °C | logP [2, 5]: 2.87

CC(CC=O)c1ccccc1 (centres unmarked) [TRIFERNAL]
Boiling Point [1, 4]: 228.4 °C | logP [2, 5]: 2.45

CCOc1cc(COC)ccc1O [METHYL DIANTILIS]
Boiling Point [1, 3]: 282.4 °C | logP [2, 6]: 1.61

CC(=O)c1ccc(C)cc1 [METHYL ACETOPHENONE PARA]
Boiling Point [1, 4]: 209.7 °C | logP [2, 5]: 2.22

CCCC1CCCC(=O)O1 (centres unmarked) [OCTALACTONE DELTA]
Boiling Point [1, 3]: 250 °C

CCc1occc(=O)c1O [ETHYL MALTOL]
Boiling Point [1, 3]: 283.4 °C | logP [2, 6]: 0.3

COc1ccc(C)cc1 [CRESYL METHYL ETHER PARA]
Boiling Point [1, 4]: 170.8 °C

CC1=CC(C)C(C=O)CC1 (centres unmarked) [LIGUSTRAL]
Boiling Point [1, 4]: 200.5 °C

CCCCCC(=O)OC [METHYL CAPROATE]
Boiling Point [1, 4]: 148.4 °C | logP [2]: 2.34

CCCC(C)C(=O)OCC (centres unmarked) [MANZANATE]
Boiling Point [1, 4]: 157.1 °C | logP [2, 5]: 2.76

CC=Cc1ccc(O)c(OC)c1 [ISOEUGENOL]
Boiling Point [1, 3]: 270.6 °C | logP [2]: 2.65

O=CCc1ccccc1
Boiling Point [1, 4]: 201.5 °C | logP [2]: 1.54

CC12CCC(C1)C(C)(C)C2O (centres unmarked) [FENCHOL]
Boiling Point [1, 4]: 210 °C

COC(=O)c1ccccc1 [METHYL BENZOATE]
Boiling Point [1, 4]: 195.9 °C | logP [2]: 1.83

CC/C=C\CC/C=C/C=O [NONADIENAL TRANS,CIS-2,6]
Boiling Point [1, 4]: 208.7 °C

O=COCc1ccccc1 [BENZYL FORMATE]
Boiling Point [1, 4]: 197.8 °C | logP [2]: 1.53

CCCCCCCC=O [ALDEHYDE C 8]
Boiling Point [1, 4]: 176 °C | logP [2, 5]: 2.78

CC(=O)OCCC(C)C [ISOAMYL ACETATE]
Boiling Point [1, 4]: 134.9 °C | logP [2]: 2.26

CCCCCC1CCCC(=O)O1 (centres unmarked) [DECALACTONE DELTA]
Boiling Point [1, 3]: 283.2 °C | logP [2, 6]: 2.57

CC(C)(CO)Cc1ccccc1 [MUGUETALCOHOL]
Boiling Point [1, 3]: 260.6 °C

CCCC(=O)OCC [ETHYL BUTYRATE]
Boiling Point [1, 4]: 125.8 °C | logP [2]: 1.85

CC(=O)c1nccs1 [ACETYL THIAZOLE-2]
Boiling Point [1, 4]: 209 °C

MENTHONE/ISOMENTHONE [MENTHONE/ISOMENTHONE RAC.]
Boiling Point [1, 4]: 213 °C | logP [2, 5]: 2.87

CC(=O)OC1CCCCC1 [CYCLOHEXYL ACETATE]
Boiling Point [1, 4]: 179.4 °C | logP [2]: 2.64

CC(=O)OCC=C(C)C [PRENYL ACETATE]
Boiling Point [1, 4]: 149.2 °C | logP [2]: 2.18

CC(=O)OCC(C)C [ISOBUTYL ACETATE]
Boiling Point [1, 4]: 111.7 °C

COc1ccc(C(C)=O)cc1 [ACETANISOLE CRYST., ACETANISOLE]
Boiling Point [1, 4]: 229.5 °C

O=Cc1ccccc1 [BE[…], BENZALDEHYDE]
Boiling Point [1, 4]: 181.2 °C | logP (physchem): 1.71

CC/C=C\CCOC(=O)OC [LEAFOVERT®]
Boiling Point [1, 4]: 213 °C | logP [2, 5]: 2.47

CCC/C=C/C=O [HEXENAL TRANS-2]
Boiling Point [1, 4]: 139.2 °C | logP [2, 5]: 1.58

CCOC(=O)Cc1ccccc1 [ETHYL PHENYL ACETATE]
Boiling Point [1, 3]: 234.3 °C | logP (physchem): 2.57

CCOc1cc(C=O)ccc1O [ETHYL VANILLIN]
logP (physchem): 1.55

CCCCCOC(C)=O [AMYL ACETATE N]
Boiling Point [1, 4]: 148.4 °C

CC(=O)c1ccccc1 [ACETOPHENONE]
Boiling Point [1, 4]: 189.8 °C

CCCCCC1CCC(=O)O1 (centres unmarked) [ALDEHYDE C18 SO-CALLED]
Boiling Point [1, 3]: 265.5 °C

COc1nccnc1CC(C)C [ISOBUTYL METHOXYPYRAZINE-3,2]
Boiling Point [1, 3]: 236.5 °C

ISOOCTANONE
Boiling Point [1, 4]: 150.5 °C | logP [2, 5]: 2.15

Source: US20220183937A1, “METHOD FOR IMPROVING THE PERFORMANCE OF A FRAGRANCE OR A FRAGRANCE MIXTURE” (SYMRISE AG, priority 2019, published 2022)
